Test results from patent publication EP4603105A1, “PHARMACEUTICAL COMPOSITION CONTAINING CYCLIC COMPOUND HAVING SELECTIVE KRAS INHIBITORY EFFECT AGAINST HRAS AND NRAS” (CHUGAI SEIYAKU KABUSHIKI KAISHA, priority 2022, dated 2024).
Where two headings read alike, the source gives them in different places. *1 amine or outer side, *2 acyl side, *3 side chain or, on linkers, in order; H or OH if unused. Where a SMILES comes first, the peptide text is derived from it. Bridges are numbered along the chain shown (N, C = ends). [ ]: non-standard residue; d: D form. The star is where a group is joined. X23 = O=C([C@H](Cc1ccc(C(F)(F)F)cc1)N(CC1CCCC1)[*:1])[*:2]; hPhe(3-Cl-4-CF3) = N[C@@H](CCc1ccc(C(F)(F)F)c(Cl)c1)C(=O)O; NPrPhe(4-CF3) = CCCN[C@@H](Cc1ccc(C(F)(F)F)cc1)C(=O)O; NMeGly(cPent) = CN[C@H](C(=O)O)C1CCCC1; NMeD = CN[C@@H](CC(=O)O)C(=O)O; NMeL = CN[C@@H](CC(C)C)C(=O)O; Morpholide = C1CN(*)CCO1; NMeA = CN[C@@H](C)C(=O)O; Ac5c = NC1(C(=O)O)CCCC1; Aze = O=C(O)[C@@H]1CCN1; Ac4c = NC1(C(=O)O)CCC1; Sar = CNCC(=O)O

What was measured:
[1] = target: GDP-bound NRAS wild-type protein (Homo sapiens, UniProt P01111); experiment: Binding to NRAS by surface plasmon resonance (SPR), KD and KD ratio to KRAS
Outline: (§1)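 GDP-loaded biotinylated Avi-tag RAS proteins (E. coli-expressed) captured on a Biotin CAPture chip at ~100–300 RU; single-cycle kinetics at 30°C, 100 µL/min, 75 s injections of rising compound concentrations. HBS pH 7.4 running buffer with 1 mM DTT, 10 mM MgCl2, 10 µM GDP, 4% DMSO. KD from 1:1 binding fit.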

HRAS wild-type protein = HRAS wild-type protein (Homo sapiens, UniProt P01112); experiment: Binding to HRAS by surface plasmon resonance (SPR), KD and KD ratio to KRAS
Outline: as §1

[2] = test system: human lung cancer strain NCI-H441; assay type: cell-based
Outline: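 Readout: […] after the ATP-based reagent. Compound: serial dilutions in dimethyl sulfoxide.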

[3] = ratio of the KD value with respect to GDP-bound NRAS wild-type protein to the KD value with respect to KRAS
[4] = ratio of the KD value with respect to HRAS wild-type protein to the KD value with respect to KRAS
[5] = ratio of KD for GDP-bound NRAS wild-type protein to KD for KRAS
[6] = ratio of KD for HRAS wild-type protein to KD for KRAS
[7] = ratio of KD value for GDP-bound NRAS wild-type protein to KD value for KRAS (SPR)
[8] = ratio of KD value for HRAS wild-type protein to KD value for KRAS (SPR)

Sequence of HRAS wild-type protein (P01112 whole entry): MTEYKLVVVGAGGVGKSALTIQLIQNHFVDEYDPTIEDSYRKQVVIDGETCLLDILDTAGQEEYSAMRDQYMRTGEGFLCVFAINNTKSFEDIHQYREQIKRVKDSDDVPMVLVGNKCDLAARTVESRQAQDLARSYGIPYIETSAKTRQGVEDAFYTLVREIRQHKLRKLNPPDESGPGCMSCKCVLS
Sequence of GDP-bound NRAS wild-type protein (P01111 whole entry): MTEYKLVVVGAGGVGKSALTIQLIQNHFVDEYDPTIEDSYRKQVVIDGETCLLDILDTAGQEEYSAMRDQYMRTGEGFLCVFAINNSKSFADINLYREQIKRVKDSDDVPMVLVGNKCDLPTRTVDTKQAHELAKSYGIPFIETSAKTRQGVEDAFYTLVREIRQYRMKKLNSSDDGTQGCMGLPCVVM

Structure (SMILES) | IC50 [2] [nM] | NRAS /KRAS [1, 3] | HRAS /KRAS (HRAS wild-type protein; [4]) | NRAS /KRAS [1, 5] | HRAS /KRAS (HRAS wild-type protein; [6]) | IC50 ([2]; NCI-H441 cells, 4 days, CellTiter-Glo, read-out: NCl-H441 IC50) [nM] | NRAS /KRAS [1, 7] | HRAS /KRAS (HRAS wild-type protein; [8])
CCO[C@@H]1C[C@H]2C(=O)NC3(CCC3)C(=O)N(C)[C@@H](C3CCCC3)C(=O)N(CCc3ccccc3)[C@H](C(=O)N(C)C)CC(=O)N(C)[C@@H](CC)C(=O)N[C@@H]([C@@H](C)CC)C(=O)N(C)CC(=O)N(C)[C@H]3CCCCN(C3=O)[C@@H](Cc3ccc(C(F)(F)F)cc3)C(=O)N(C)CC(=O)N[C@@H](CCc3cc(F)c(C(F)(F)F)c(F)c3)C(=O)N2C1 [PP0647] | 45 | C (A compound having a KD ratio of 0.1 or more and less than 3 is denoted as C) | B (a compound having 3 or more and less than 10 is denoted as B) |  |  |  |  | 
CCOC[C@H]1C(=O)N[C@@H]([C@@H](C)CC)C(=O)N(C)CC(=O)N(C)[C@H]2C/C=C\CCN(C2=O)[C@@H](Cc2ccc3c(c2)CCC3(F)F)C(=O)N(C)CC(=O)N[C@@H](CCc2ccc(C(F)(F)F)c(OC)c2)C(=O)N2C[C@@H](C)C[C@H]2C(=O)NC2(CC(C)(C)C2)C(=O)N(C)[C@@H](C2CCCC2)C(=O)N(C)[C@H](C(=O)N(C)CC)CC(=O)N1C [PP2704] |  |  |  | B (a compound having 3 or more and less than 10 is denoted as B) | B (a compound having 3 or more and less than 10 is denoted as B) | 10.7 |  | 
CCC[C@H]1C(=O)N[C@@H]([C@@H](C)CC)C(=O)N2CCC[C@H]2C(=O)N(C)[C@H]2C/C=C\CCN(C2=O)[C@@H](Cc2ccc(C(F)(F)F)cc2)C(=O)N(C)CC(=O)N[C@@H](CCc2ccc(C(F)(F)F)c(OC)c2)C(=O)N2C[C@H](OCC)C[C@H]2C(=O)N(C)C2(CCC2)C(=O)N(C)[C@@H](C2CCCC2)C(=O)N(C)[C@H](C(=O)N2CCCCC2)CC(=O)N1C [PP3099] | 13.3 |  |  | A (a compound having 10 or more and less than 20 is denoted as A) | A (a compound having 10 or more and less than 20 is denoted as A) |  |  | 
CCCOC[C@H]1C(=O)N[C@@H]([C@@H](C)CC)C(=O)N(C)CC(=O)N(C)[C@H]2C/C=C\CCN(C2=O)[C@@H](Cc2ccc(C(F)(F)F)cc2)C(=O)N(C)CC(=O)N[C@@H](CCc2ccc(C(F)(F)F)c(OC)c2)C(=O)N2C[C@@H](C)C[C@H]2C(=O)NC2(CC(C)(C)C2)C(=O)N(C)[C@@H](C2CCCC2)C(=O)N(C)[C@H](C(=O)N(C)CC)CC(=O)N1C [PP1995] | 17.8 | A (a compound having 10 or more and less than 20 is denoted as A) | B (a compound having 3 or more and less than 10 is denoted as B) |  |  |  |  | 
CC[C@H](C)[C@@H]1NC(=O)[C@H](CC(C)C)N(C)C(=O)C[C@@H](C(=O)N2CCOCC2)N(C)C(=O)[C@H](C2CCCC2)N(C)C(=O)C2(CCCC2)NC(=O)[C@@H]2CCCN2C(=O)[C@H](CCc2ccc(C(F)(F)F)c(Cl)c2)NC(=O)CN(C)C(=O)[C@H](Cc2ccc(C(F)(F)F)cc2)N(CC2CCCC2)C(=O)[C@@H]2CCN2C(=O)[C@H](C)N(C)C1=O [PP0110] ([NMeL]I[NMeA][Aze][X23][Sar][hPhe(3-Cl-4-CF3)]P[Ac5c][NMeGly(cPent)][NMeD]-Morpholide; lactam N-11) | 56.5 |  |  | C (A compound having a KD ratio of 0.1 or more and less than 3 is denoted as C) | B (a compound having 3 or more and less than 10 is denoted as B) |  |  | 
CCO[C@@H]1C[C@H]2C(=O)NC3(CCC3)C(=O)N(C)[C@@H](C3CCCC3)C(=O)N(C)[C@H](C(=O)N(C)C)CC(=O)N(C)[C@@H](CC)C(=O)N[C@@H]([C@@H](C)CC)C(=O)N(C)CC(=O)N(C)[C@H]3CC=C(C)CN(C3=O)[C@@H](Cc3ccc(C(F)(F)F)cc3)C(=O)N(C)CC(=O)N[C@@H](CCc3cc(F)c(C(F)(F)F)c(F)c3)C(=O)N2C1 [PP0827] | 15.7 |  |  | C (A compound having a KD ratio of 0.1 or more and less than 3 is denoted as C) | C (A compound having a KD ratio of 0.1 or more and less than 3 is denoted as C) |  |  | 
CCO[C@@H]1C[C@H]2C(=O)NC3(CCC3)C(=O)N(C)[C@@H](C3CCCC3)C(=O)N(CC)[C@H](C(=O)N(C)C)CC(=O)N(C)[C@@H](CC)C(=O)N[C@@H]([C@@H](C)CC)C(=O)N(C)CC(=O)N(C)[C@H]3C/C=C\CCN(C3=O)[C@@H](Cc3ccc(C(F)(F)F)cc3)C(=O)N(C)CC(=O)N[C@@H](CCc3cc(F)c(C(F)(F)F)c(F)c3)C(=O)N2C1 [PP0980] | 223 |  |  | A (a compound having 10 or more and less than 20 is denoted as A) | B (a compound having 3 or more and less than 10 is denoted as B) |  |  | 
CC[C@H](C)[C@@H]1NC(=O)[C@H](CCOC)N(C)C(=O)C[C@@H](C(=O)N(C)CC)N(C)C(=O)[C@H](C2CCCC2)N(C)C(=O)C2(CC(C)(C)C2)NC(=O)[C@@H]2C[C@H](C)CN2C(=O)[C@H](CCc2ccc(C(F)(F)F)c(OC)c2)NC(=O)CN(C)C(=O)[C@H](Cc2ccc(C(F)(F)F)cc2)N2CC/C=C\C[C@@H](C2=O)N(C)C(=O)CN(C)C1=O [PP1999] | 26.6 | A (a compound having 10 or more and less than 20 is denoted as A) | B (a compound having 3 or more and less than 10 is denoted as B) |  |  |  |  | 
CCO[C@@H]1C[C@H]2C(=O)NC3(CC=CC3)C(=O)N(C)[C@@H](C3CCCC3)C(=O)N(CC)[C@H](C(=O)N3CCOCC3)CC(=O)N(C)[C@@H](CC(C)C)C(=O)N[C@@H]([C@@H](C)CC)C(=O)N(C)CC(=O)N(C)[C@H]3CCCCCN(C3=O)[C@@H](Cc3ccc(C(F)(F)F)cc3)C(=O)N(C)CC(=O)N[C@@H](CCc3cc(F)c(C(F)(F)F)c(F)c3)C(=O)N2C1 [PP0956] | 690 |  |  | A (a compound having 10 or more and less than 20 is denoted as A) | A (a compound having 10 or more and less than 20 is denoted as A) |  |  | 
CCC[C@H]1C(=O)N[C@@H]([C@@H](C)CC)C(=O)N(C)CC(=O)N(C)[C@H]2C/C=C\CCN(C2=O)[C@@H](Cc2ccc(C)cc2)C(=O)N(C)CC(=O)N[C@@H](CCc2ccc3c(C)c(C)n(C)c3c2)C(=O)N2C[C@H](OCC)C[C@H]2C(=O)NC2(CC(C)(C)C2)C(=O)N(C)[C@@H](C2CCCC2)C(=O)N(C)[C@H](C(=O)N(C)C)CC(=O)N1C [PP2895] | 59 |  |  | A (a compound having 10 or more and less than 20 is denoted as A) | A (a compound having 10 or more and less than 20 is denoted as A) |  |  | 

Continued, in another order:

IC50 [2] [nM] | Structure (SMILES) | NRAS /KRAS [1, 3] | HRAS /KRAS (HRAS wild-type protein; [4]) | NRAS /KRAS [1, 5] | HRAS /KRAS (HRAS wild-type protein; [6]) | IC50 ([2]; NCI-H441 cells, 4 days, CellTiter-Glo, read-out: NCl-H441 IC50) [nM] | NRAS /KRAS [1, 7] | HRAS /KRAS (HRAS wild-type protein; [8])
130 | CCC(CC)[C@H]1C(=O)N(C)[C@H](C(=O)N(C)C)CC(=O)N(C)[C@@H](COC)C(=O)N[C@@H]([C@@H](C)CC)C(=O)N(C)CC(=O)N(C)[C@H]2C/C=C\CCN(C2=O)[C@@H](Cc2ccc(C(F)(F)F)cc2)C(=O)N(C)CC(=O)N[C@@H](CCc2cc(F)c(C(F)(F)F)c(F)c2)C(=O)N2CCOC[C@H]2C(=O)NC2(CC(C)(C)C2)C(=O)N1C [PP2917] |  |  | AA (a compound having 20 or more is denoted as AA) | A (a compound having 10 or more and less than 20 is denoted as A) |  |  | 
317 | CCO[C@@H]1C[C@H]2C(=O)NC3(CCC3)C(=O)N(C)[C@@H](C3CCCC3)C(=O)N(C)[C@H](C(=O)N3CCOCC3)CC(=O)N(C)[C@@H](Cc3ccccc3Cl)C(=O)N[C@@H]([C@@H](C)CC)C(=O)N(C)CC(=O)N(C)[C@H]3CCCCCN(C3=O)[C@@H](Cc3ccc(C(F)(F)F)cc3)C(=O)N(C)CC(=O)N[C@@H](CCc3cc(F)c(C(F)(F)F)c(F)c3)C(=O)N2C1 [PP0929] |  |  | A (a compound having 10 or more and less than 20 is denoted as A) | B (a compound having 3 or more and less than 10 is denoted as B) |  |  | 
7.4 | CCCN(C)C(=O)[C@@H]1CC(=O)N(C)[C@@H](C)C(=O)N[C@@H]([C@@H](C)CC)C(=O)N(C)CC(=O)N(C)[C@H]2C/C=C\CCN(C2=O)[C@@H](Cc2ccc(C(F)(F)F)cc2)C(=O)N(C)CC(=O)N[C@@H](CCc2cc(F)c(C(F)(F)F)c(F)c2)C(=O)N2C[C@H](OCC)C[C@H]2C(=O)NC2(CC(F)(F)C2)C(=O)N(C)[C@@H](C2CCCC2)C(=O)N1C [PP1731] |  |  |  |  |  | A (a compound having 10 or more and less than 20 is denoted as A) | A (a compound having 10 or more and less than 20 is denoted as A)
4.6 | CCCN1C(=O)CN(C)C(=O)CNC(=O)[C@H]([C@@H](C)CC)NC(=O)[C@H](CC(C)C)N(C)C(=O)C[C@@H](C(=O)N(C)C)N(C)C(=O)[C@H](C2CCCC2)N(C)C(=O)C2(CCC2)NC(=O)[C@@H]2CCCN2C(=O)[C@H](CCc2ccc(C(F)(F)F)c(Cl)c2)NC(=O)CN(C)C(=O)[C@@H]1Cc1ccc(C(F)(F)F)cc1 [PP0418] ([NMeL]IG[Sar][NPrPhe(4-CF3)][Sar][hPhe(3-Cl-4-CF3)]P[Ac4c][NMeGly(cPent)][NMeD]-NMe2; lactam N-11) | B (a compound having 3 or more and less than 10 is denoted as B) | C (A compound having a KD ratio of 0.1 or more and less than 3 is denoted as C) |  |  |  |  | 
5.3 | CCC[C@H]1C(=O)N[C@@H]([C@@H](C)CC)C(=O)N(C)CC(=O)N(C)[C@H]2C/C=C\CCN(C2=O)[C@@H](Cc2ccc(C)cc2)C(=O)N(C)CC(=O)N[C@@H](CCc2ccc(C(F)(F)F)c(Cl)c2)C(=O)N2C[C@H](OCC)C[C@H]2C(=O)NC2(CC(C)(C)C2)C(=O)N(C)[C@@H](C2CCCC2)C(=O)N(C)[C@H](C(=O)N(C)C)CC(=O)N1C [PP1896] |  |  |  |  |  | A (a compound having 10 or more and less than 20 is denoted as A) | B (a compound having 3 or more and less than 10 is denoted as B)
